Experimental data taken from PubChem BioAssay (NCI).
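The compound was tested at five concentrations on cells cultured in 96-well plates, with a 48-hour exposure period. TGI: total growth inhibition.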

How the values were obtained:
Experiment in all cases: NCI-60 cell line screen, 48 h
[1] = system: 786-0 renal
[2] = system: A498 renal
[3] = system: BT-549 breast
[4] = system: HS 578T breast
[5] = system: K-562 leukemia
[6] = system: MDA-N
[7] = system: NCI-H460 lung
[8] = system: NCI/ADR-RES ovarian
[9] = system: SF-295 CNS
[10] = system: SK-MEL-5 melanoma
[11] = system: SNB-19 CNS
[12] = system: UACC-257 melanoma
[13] = system: MDA-MB-231 breast

| SMILES | TGI [1] [µM] | TGI [2] [µM] | TGI [3] [µM] | TGI [4] [µM] | TGI [5] [µM] | TGI [6] [µM] | TGI [7] [µM] | TGI [8] [µM] | TGI [9] [µM] | TGI [10] [µM] | TGI [11] [µM] | TGI [12] [µM] | TGI [13] [µM] |
| --- | --- | --- | --- | --- | --- | --- | --- | --- | --- | --- | --- | --- | --- |
| C1CSCCSCCCSCCSCCCSCCSCCCSCCSC1 | > 100 | > 100 | > 100 | > 100 | > 100 | > 100 | > 100 | > 100 | > 100 | > 100 | > 100 | > 100 | – |
| Cc1cnc2c(c1C)C(=O)c1ccccc1C2=O | > 100 | > 100 | > 100 | > 100 | > 100 | – | 53.8 | > 100 | > 100 | 28.9 | > 100 | > 100 | 93.9 |
| O=C(c1ccccc1)c1c(CC(O)c2ccncc2)n(C(=O)c2ccccc2)c2ccccc12 (centres undefined) | 39.1 | – | – | – | – | – | 49.9 | – | 26 | 30.1 | 73.1 | 32.9 | – |
| CCCCCCCCCCCC[N+](CCCCCCCCCCCC)=C1SCCS1 | 11.8 | 29.4 | – | – | – | – | 20.5 | – | 11.6 | 18.5 | – | 21.3 | – |
| c1ccc(CC2COC(c3cccs3)=N2)cc1 (centres undefined) | > 100 | – | > 100 | > 100 | > 100 | > 100 | > 100 | > 100 | > 100 | > 100 | > 100 | > 100 | > 100 |
| C=C(C)[C@@H]1CC[C@]2(C(=O)OC)CC[C@]3(C)[C@H](CC[C@@H]4[C@@]5(C)CC[C@H](O)C(C)(C)[C@@H]5CC[C@]43C)[C@@H]12 | 45.9 | 36.7 | – | 56.5 | 47 | 42.7 | 38.4 | 51.7 | 34.4 | 41.3 | 39.5 | 38.3 | > 100 |
| O=C(O)c1ccccc1N=Nc1c(O)c(S(=O)(=O)O)cc2cc(S(=O)(=O)O)ccc12 | > 100 | > 100 | – | > 100 | > 100 | > 100 | > 100 | – | > 100 | > 100 | > 100 | > 100 | > 100 |
| N#CCCC1(CCC#N)CCCCCCCCC(CCC#N)(CCC#N)C(O)C1O (centres undefined) | > 100 | > 100 | – | 91.3 | > 100 | > 100 | > 100 | > 100 | > 100 | > 100 | > 100 | > 100 | – |
| O=C1NC2CCCCCC2C12CCCCC2 (centres undefined) | – | > 100 | – | – | > 100 | – | > 100 | – | > 100 | – | > 100 | > 100 | – |
| CC(=O)O[C@H]1CC[C@@]2(C)C(=CC[C@@H]3[C@@H]2CC[C@]2(C)c4nc(Cl)ccc4C[C@@H]32)C1 | > 100 | > 100 | > 100 | – | > 100 | > 100 | > 100 | > 100 | 83.3 | 96.6 | > 100 | > 100 | > 100 |
| CCN(CC)c1nnc(CCCCCCCCc2nnc(N(CC)CC)o2)o1 | > 100 | > 100 | > 100 | – | > 100 | > 100 | > 100 | > 100 | > 100 | > 100 | > 100 | > 100 | > 100 |
| O=c1[nH]c2nc3ccccc3c(=O)n2/c1=C/c1ccco1 | > 100 | – | > 100 | > 100 | > 100 | > 100 | – | > 100 | > 100 | > 100 | > 100 | > 100 | > 100 |
| O=NN(CCF)C(=O)NC1CCSCC1 | – | > 100 | – | – | > 31.6 | – | > 100 | > 100 | > 100 | > 100 | > 100 | > 100 | – |
| O=C(O)c1cc(CCc2cc(O)ccc2O)ccc1O | > 100 | > 100 | > 100 | > 100 | > 100 | 27.1 | > 100 | > 100 | > 100 | > 100 | – | > 100 | – |
| CNNC(=NS(=O)(=O)c1cc(C#N)c(NNC)cc1S)NNC | > 10 | > 10 | > 10 | > 10 | > 10 | > 10 | > 10 | > 10 | > 10 | > 10 | > 10 | > 10 | – |
| COc1cccc(C2c3cc4c(cc3OC3COC(=O)C32)OCO4)c1OC (centres undefined) | > 100 | > 100 | > 100 | > 100 | – | > 100 | > 100 | > 100 | > 100 | > 100 | > 100 | > 100 | > 100 |
| COc1ccc(NC(=O)C(=O)/C=C(\O)c2ccccc2)cc1 | > 10 | – | – | – | > 10 | > 10 | – | – | > 10 | > 10 | – | > 10 | > 10 |
| CO/N=C1/c2sccc2[C@H](NC(=O)C(Cc2ccccc2)NC(=O)OC(C)(C)C)[C@@H]1O (some centres undefined) | – | > 100 | > 100 | > 100 | > 100 | > 100 | > 100 | > 100 | > 100 | > 100 | > 100 | > 100 | > 100 |
| CN=C(Nc1cccc(C(F)(F)F)c1)SCc1ccc(N=C=S)cc1 | 31 | 34.6 | – | 54.2 | > 100 | 28 | 26.4 | 61.3 | 30.2 | 30.1 | 28.1 | 27.3 | 32.3 |
| Nc1ncnc2c1ncn2[C@@H]1O[C@H](COC(c2ccccc2)(c2ccccc2)c2ccccc2)[C@@H](OC(=S)Oc2ccccc2)[C@@H]1F | 15.9 | 35.2 | 19.9 | 25.1 | > 100 | – | 46.3 | 18.5 | 31.1 | 16.8 | 27.7 | 28.6 | 23.7 |
